Where two headings read alike, the source gives them in different places.
What was measured:
hMAO-B [1] = biological target: T1, hMAO-B (Homo sapiens, UniProt P27338); test: hMAO-B inhibition, IC50 determination (kynuramine fluorescence); type: biochemical
T1 sequence (P27338 1-520): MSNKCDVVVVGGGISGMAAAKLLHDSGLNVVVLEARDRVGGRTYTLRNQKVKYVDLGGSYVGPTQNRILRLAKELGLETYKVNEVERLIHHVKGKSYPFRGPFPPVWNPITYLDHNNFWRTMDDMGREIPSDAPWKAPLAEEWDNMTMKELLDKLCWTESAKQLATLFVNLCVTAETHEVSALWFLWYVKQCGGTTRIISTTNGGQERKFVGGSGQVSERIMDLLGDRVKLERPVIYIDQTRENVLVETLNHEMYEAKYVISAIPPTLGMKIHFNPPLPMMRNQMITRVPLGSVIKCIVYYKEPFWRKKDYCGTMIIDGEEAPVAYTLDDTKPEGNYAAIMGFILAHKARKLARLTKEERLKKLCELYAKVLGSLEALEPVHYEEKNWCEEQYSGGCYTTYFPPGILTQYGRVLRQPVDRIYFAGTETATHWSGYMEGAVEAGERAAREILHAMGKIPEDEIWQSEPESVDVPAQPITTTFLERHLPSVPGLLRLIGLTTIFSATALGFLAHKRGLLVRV
Protocol: (§1) The procedure for the measurement of IC50 values for the inhibition of MAO has been reported. The enzyme reactions were prepared to a volume of […] in potassium phosphate buffer at pH 7.4 (100 mM, made isotonic with KCl) and contained kynuramine (50 μM) and the test inhibitors (0.003–100 µM). Stock solutions of the test inhibitors were prepared in DMSO and added to the reactions to yield 4% DMSO. The enzyme reactions were initiated with the addition of recombinant hMAO-A (0.0075 mg protein/mL) or hMAO-B (0.015 mg protein/mL) and incubated for 20 min at 37 °C. At endpoint, the reactions were terminated with 80 µL sodium hydroxide (2N) and the fluorescence of 4-hydroxyquinoline, the oxidation product of kynuramine, was measured (λex = 310; λem = 400 nm)[33]. 4-Hydroxyquinoline was quantified with a calibration curve (0.047–1.56 μM) and the rate of 4-hydroxyquinoline formation was fitted to the one site competition model of the Prism 5 software package (GraphPad). From the resulting sigmoidal plots, the IC50 values were estimated. All enzyme reactions were carried out in triplicate and IC50 values are given as the mean ± standard deviation (SD).

hMAO-B [2] = biological target: T1, hMAO-B; test: Reversibility of MAO-B inhibition by dialysis; type: biochemical
Protocol: Stock solutions of the test compounds were prepared in DMSO and added to the incubations to yield 4% DMSO. The samples were dialyzed for 24 h at 4 °C in 80 ml of dialysis buffer using Slide-A-Lyzer® dialysis cassettes (Thermo Scientific) with a molecular weight cut-off of 10,000 and a sample volume capacity of 0.5–3 ml. The dialysis buffer was replaced at 3 and 7 h after the start of dialysis. Following dialysis, the dialysis samples were diluted twofold with the addition of kynuramine to yield a kynuramine concentration and inhibitor concentration of 50 µM and 2 × IC50, respectively. The reactions (500 µL) were incubated for 20 min at 37 °C and terminated with NaOH (400 μL, 2 N) and water (1000 µL). The fluorescence of 4-hydroxyquinoline in these samples was measured as described for the IC50 determination above. […] Undialysed mixtures of MAO-B and the test inhibitors were maintained at 4 °C for 24 h and diluted and assayed as above. All reactions were carried out in triplicate and the residual enzyme catalytic rates are expressed as mean ± SD.
Reversibility of MAO inhibition is an important factor to consider when evaluating the inhibition properties of potential inhibitors. Irreversible MAO inhibitors, particularly of the MAO-A isoform, are associated with dangerous adverse effects such as the cheese reaction, which occurs when irreversible MAO-A inhibitors are taken with tyramine-rich food[51]. […] The samples were diluted twofold and the residual MAO-B activity was measured. For reversible inhibition, dialysis is expected to reverse inhibition by the test inhibitors and restore enzyme activity to the level of the negative control. […] A final experiment consisted of incubations containing MAO-B and tested inhibitors which were not dialyzed, but maintained for 24 h.

hMAO-B [3] = biological target: T1, hMAO-B; test: Lineweaver-Burk plots, mode of inhibition and Ki; type: biochemical
Protocol: To construct Lineweaver–Burk plots, the enzyme reactions were carried out to a volume of 500 µL and the concentration of MAO-B was 0.015 mg protein/mL. All enzyme reactions and activity measurements were carried out as described above for the dialysis experiments. The first plot was constructed in the absence of inhibitor, while the remaining five plots were constructed in the presence of the following concentrations: ¼ × IC50, ½ × IC50, ¾ × IC50, 1 × IC50 and 1¼ × IC50. For each line, kynuramine was used at concentrations of 15–250 μM. The Ki value was estimated from a plot of the slopes of the Lineweaver–Burk plots versus inhibitor concentration (x-axis intercept equals –Ki).
To provide further support for the reversibility of MAO-B inhibition by compounds 4 and 37, a set of Lineweaver–Burk plots was constructed for each inhibitor at the following inhibitor concentrations: ¼ × IC50, ½ × IC50, ¾ × IC50, 1 × IC50, and 1¼ × IC50. The substrate, kynuramine, was used at 15–250 µM for each line. […] The lines of the plots intersect on the y-axis and a replot of the slopes versus inhibitor concentration yields a linear line, from which the enzyme-inhibitor dissociation constant (Ki) was estimated (Ki = −x-axis intercept).

hMAO-A = biological target: T2, hMAO-A (Homo sapiens, UniProt P21397); test: hMAO-A inhibition, IC50 determination (kynuramine fluorescence); type: biochemical
T2 sequence (P21397 1-527): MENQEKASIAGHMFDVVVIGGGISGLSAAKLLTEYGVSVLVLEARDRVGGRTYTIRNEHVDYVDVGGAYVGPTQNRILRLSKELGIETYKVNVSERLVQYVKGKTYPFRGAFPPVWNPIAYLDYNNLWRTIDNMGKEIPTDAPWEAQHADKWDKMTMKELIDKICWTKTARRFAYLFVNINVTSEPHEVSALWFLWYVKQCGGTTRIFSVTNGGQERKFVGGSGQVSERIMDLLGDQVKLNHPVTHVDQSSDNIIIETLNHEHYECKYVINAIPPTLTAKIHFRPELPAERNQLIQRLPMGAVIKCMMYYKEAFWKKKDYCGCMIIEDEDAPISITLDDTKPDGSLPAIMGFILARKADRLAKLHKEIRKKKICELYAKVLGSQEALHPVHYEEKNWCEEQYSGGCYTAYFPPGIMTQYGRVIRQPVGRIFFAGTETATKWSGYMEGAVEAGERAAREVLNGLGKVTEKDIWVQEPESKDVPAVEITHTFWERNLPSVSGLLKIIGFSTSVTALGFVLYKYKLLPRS
Protocol: as §1

[4] = Phosphomolybdenum assay (PhosphoMo), total antioxidant activity; conditions: concentration at which absorbance was 0.5
Protocol: The total antioxidant activity of the compounds was evaluated by phosphomolybdenum method according to Zengin et al.[35]. The sample solution (0.3 ml) was combined with 3 ml of reagent solution (0.6 M sulphuric acid, 28 mM sodium phosphate, and 4 mM ammonium molybdate) and the absorbance was recorded at 695 nm after 90 min incubation at 95 °C. The EC50, which is the effective concentration at which the absorbance was 0.5, was calculated for each compound and trolox, as a reference drug.

[5] = ABTS radical cation scavenging activity
Protocol: (§2) The scavenging activity of the compounds on the ABTS radical cation [ABTS,2,2′-azino-bis(3-ethylbenzothiazoline)-6-sulphonic acid] was measured according to the method of Zengin et al.[37] with slight modification. Briefly, ABTS^+ was produced directly by reacting a 7 mM ABTS solution with 2.45 mM potassium persulphate and allowing the mixture to incubate for 12–16 h in the dark at room temperature. Prior to initiating the assay, the ABTS solution was diluted with methanol to an absorbance of 0.700 ± 0.02 at 734 nm. The sample solution (1 ml) was added to the ABTS^+ solution (2 ml) and mixed, and the sample absorbance was recorded at 734 nm after 30 min incubation at room temperature. The corresponding IC50 value, which is the effective concentration at which 50% of DPPH/ABTS radicals are scavenged, was calculated for each compound and trolox, as a reference drug.

[6] = Cupric ion reducing activity (CUPRAC)
Protocol: The cupric ion reducing activity (CUPRAC) was determined according to the method of Zengin et al.[38]. The sample solution (0.5 ml) was added to a premixed reaction mixture containing CuCl2 (1 ml, 10 mM), neocuproine (1 ml, 7.5 mM), and NH4Ac buffer (1 ml, 1 M, pH 7.0). Similarly, a blank was prepared by adding the sample solution (0.5 ml) to a premixed reaction mixture (3 ml) without CuCl2. The absorbances of the sample and blank were subsequently recorded at 450 nm after 30 min incubation at room temperature. The absorbance of the blank was subtracted from that of the sample.
(§3) The FRAP (ferric reducing antioxidant power) assay was carried out as described by Zengin et al.[38]. The sample solution (0.1 ml) was added to the premixed FRAP reagent (2 ml) containing acetate buffer (0.3 M, pH 3.6), 2,4,6-tris(2-pyridyl)-s-triazine (10 mM) in 40 mM HCl, and ferric chloride (20 mM) in a ratio of 10/1/1 (v/v/v). The absorbance of the sample was subsequently recorded at 593 nm after 30 min incubation at room temperature. Both results were expressed as EC50 values, using trolox as a reference drug.

[7] = FRAP (ferric reducing antioxidant power) assay
Protocol: as §3

[8] = Metal chelating activity on ferrous ions; conditions: ferrozine
Protocol: Metal chelating activity on ferrous ions was evaluated by the method previously described. Briefly, the sample solution (2 ml) was added to FeCl2 solution (0.05 ml, 2 mM). The reaction was initiated by the addition of 5 mM ferrozine (0.2 ml). Similarly, a blank was prepared by adding the sample solution (2 ml) to FeCl2 solution (0.05 ml, 2 mM) and water (0.2 ml) without ferrozine. Then, the sample and blank absorbance were recorded at 562 nm after incubation for 10 min at room temperature. The absorbance of the blank was subtracted from that of the sample. EDTA was used as a positive control and this property was expressed as IC50 value for each compound.

[9] = DPPH radical scavenging activity
Protocol: The radical scavenging effect of the compounds using the 1,1-diphenyl-2-picrylhydrazyl (DPPH) radical was estimated according to Zengin et al.[36]. The sample solution (1 ml) was added to 4 ml of a 0.004% solution of DPPH in methanol. The sample absorbance was recorded at 517 nm after 30 min incubation at room temperature in the dark.
as §2

SMILES: Nc1cccc(-c2csc(N/N=C/c3cccs3)n2)c1 [Compound 37]
- IC50 (hMAO-B [1]): 2.67 µM
- Reversibility of MAO-B inhibition (hMAO-B [2]; dialysis 24 h): fully reversible
- Residual MAO-B activity, undialysed mixtures (hMAO-B [2]; inhibitor at 4 × IC50, not dialyzed, maintained 24 h): 20%
- Residual MAO-B activity after dialysis (hMAO-B [2]; inhibitor at 4 × IC50, preincubated 15 min, dialyzed 24 h, relative to negative control): 97%
- Ki (hMAO-B [3]): 1.84 µM
- Mode of MAO-B inhibition (hMAO-B [3]; Lineweaver-Burk plots): competitive

SMILES: CC(=NNc1nc(-c2cccc([N+](=O)[O-])c2)cs1)c1ccc2ccc3ccccc3c2c1 [Compound 34, 1-(4-(3-Nitrophenyl)thiazol-2-yl)-2-(1-(phenanthren-3-yl)ethylidene)hydrazine]
- melting point: 255 to 257 °C
- IC50 (hMAO-B [1]; recombinant hMAO-B, kynuramine 50 μM, 20 min, 37 °C, read-out: IC50 hMAO-B): 80.5 µM
- IC50 (hMAO-A; recombinant hMAO-A, kynuramine 50 μM, 20 min, 37 °C, read-out: IC50 hMAO-A): 101 µM

SMILES: O=[N+]([O-])c1cccc(-c2csc(NN=Cc3cccs3)n2)c1 [Compound 3, 1-(4-(3-Nitrophenyl)thiazol-2-yl)-2-(thiophen-2-ylmethylene)hydrazine]
- EC50 [4]: 1840 ± 180 µM
- IC50 [5]: 1050 ± 10 µM
- EC50 [6]: 590 ± 10 µM
- Selectivity index (SI) for the MAO-B isoform (hMAO-B [1]; ratio (IC50 hMAO-A)/(IC50 hMAO-B)): 8412
- IC50 (hMAO-A): 57.2 µM
- EC50 [7]: 410 ± 20 µM
- IC50 [8]: > 5000 µM
- IC50 [9]: 1190 ± 10 µM

From paper PMC6366404, “4-(3-Nitrophenyl)thiazol-2-ylhydrazone derivatives as antioxidants and selective hMAO-B inhibitors: synthesis, biological activity and computational analysis” (Journal of Enzyme Inhibition and Medicinal Chemistry, 2019)
